Measured values from patent US11752104B2, “Oral composition and methods for manufacturing the same and treatment” (MEDICAL AND PHARMACEUTICAL INDUSTRY TECHNOLOGY AND …, priority 2019, dated 2023).

Experiment: Particle size of milled tacrolimus particles by laser particle size analyzer (Malvern 3000)
Type: physicochemical
Settings: for D90 / D10 / D50 / D [3, 3] / D [4, 3]: Malvern 3000
Experimental: The milling process is conducted under the water bath at the temperature of about 4 to 18° C. for decreasing high-released energy in case of the deactivation of the milled particles.
Table 1 illustrates the statistically analyzed diameter size of the milled particles after different milling time, detected by laser particle size analyzer, Malven 3000. After milling for 90 mins, the D90 of the particles is decreased to a level of less than 400 nm. Furthermore, it was observed that preferred D90 of milled particles would be limited in the range of 100 nm to 800 nm. If D90 is less than 100 nm, the issue of particle aggregation cannot be prevented. If D90 is greater than 800 nm, the favorable effect is not significant.

C=CC[C@@H]1/C=C(\C)C[C@H](C)C[C@H](OC)[C@H]2O[C@@](O)(C(=O)C(=O)N3CCCC[C@H]3C(=O)O[C@H](/C(C)=C/[C@@H]3CC[C@@H](O)[C@H](OC)C3)[C@H](C)[C@@H](O)CC1=O)[C@H](C)C[C@@H]2OC [tacrolimus]
D90 of the particles (after milling for 90 mins): less than 400 nm | D90 (milling time 0 min (unmilled)): 17.000 μm | D10 (milling time 0 min): 2.300 μm | D50 (milling time 0 min): 6.600 μm | D [3, 3] (milling time 0 min): 4.860 μm | D [4, 3] (milling time 0 min): 8.880 μm | D10 (milling time 15 min): 0.157 μm | D50 (milling time 15 min): 0.338 μm | D90 (milling time 15 min): 0.967 μm | D [3, 3] (milling time 15 min): 0.294 μm | D [4, 3] (milling time 15 min): 0.578 μm | D10 (milling time 30 min): 0.119 μm | D50 (milling time 30 min): 0.255 μm | D90 (milling time 30 min): 0.572 μm | D [3, 3] (milling time 30 min): 0.219 μm | D [4, 3] (milling time 30 min): 0.328 μm | D10 (milling time 45 min): 0.123 μm | D50 (milling time 45 min): 0.270 μm | D90 (milling time 45 min): 0.608 μm | D [3, 3] (milling time 45 min): 0.230 μm | D [4, 3] (milling time 45 min): 1.360 μm | D10 (milling time 60 min): 0.094 μm | D50 (milling time 60 min): 0.198 μm | D90 (milling time 60 min): 0.426 μm | D [3, 3] (milling time 60 min): 0.170 μm | D [4, 3] (milling time 60 min): 0.232 μm | D10 (milling time 75 min): 0.088 μm | D50 (milling time 75 min): 0.183 μm | D90 (milling time 75 min): 0.390 μm | D [3, 3] (milling time 75 min): 0.158 μm | D [4, 3] (milling time 75 min): 0.216 μm | D10 (milling time 90 min): 0.083 μm | D50 (milling time 90 min): 0.174 μm | D90 (milling time 90 min): 0.364 μm | D [3, 3] (milling time 90 min): 0.149 μm | D [4, 3] (milling time 90 min): 0.202 μm
